Data published in patent US8906925B2, “Pyrido[4,3-B]indoles containing rigid moieties” (Medivation Technologies, Inc., priority 2008, dated 2014).
Where “and” joins values, the source holds several entries; their conditions need not be identical. Identical values can stand only once. Like-named read-outs stand apart in the source and are kept apart here.

Columns and labels:
[1] = system: rat central imidazoline I2 receptor; test: Central imidazoline I2 radioligand binding ([3H]Idazoxan)
Description: To evaluate in radioligand binding assays the activity of compounds of the invention, rat central imidazoline I2 receptor obtained from Wistar Rat cerebral cortex (Brown, C. M. et al., Br. J. Pharmacol. 99:803, 1990) in a modified Tris-HCl buffer (50 mM Tris-HCl buffer, pH 7.4, 0.5 mM EDTA) was used. Compounds of the invention were incubated with 2 nM [^3H]Idazoxan for 30 min. at 25° C. Non-specific binding was estimated in the presence of 1 μM Idazoxan. Receptor proteins were filtered and washed, the filters were then counted to determine [^3H]Idazoxan specifically bound. Compounds were screened at 1 μM or lower, using 1% DMSO as vehicle. Compounds of the invention were tested in this biochemical assay and percent inhibition of specific binding was determined.

[2] = biological target: T1, human recombinant adrenergic α2C receptor (Homo sapiens, UniProt P18825); test: Adrenergic α2C radioligand binding ([3H]MK-912); settings: compound at 1 μM
T1 construct: expressed in transfected cells; host or cells: insect Sf9 cells
T1 sequence (P18825 1-462): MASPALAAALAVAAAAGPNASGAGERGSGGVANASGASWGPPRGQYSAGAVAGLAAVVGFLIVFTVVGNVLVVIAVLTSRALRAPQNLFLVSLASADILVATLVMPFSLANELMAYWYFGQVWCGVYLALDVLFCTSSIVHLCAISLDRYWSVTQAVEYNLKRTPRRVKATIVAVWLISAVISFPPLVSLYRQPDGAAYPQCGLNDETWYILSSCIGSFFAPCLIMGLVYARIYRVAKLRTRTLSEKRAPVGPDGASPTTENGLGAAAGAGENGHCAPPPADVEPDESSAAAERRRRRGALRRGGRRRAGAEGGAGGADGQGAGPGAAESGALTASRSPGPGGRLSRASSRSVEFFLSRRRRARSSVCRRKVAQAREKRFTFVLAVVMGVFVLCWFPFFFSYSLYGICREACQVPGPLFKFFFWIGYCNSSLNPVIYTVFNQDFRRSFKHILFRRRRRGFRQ
Description: To evaluate in radioligand binding assays the activity of compounds of the invention, human recombinant adrenergic α2C receptor expressed in insect Sf9 cells (Uhlen S et al. J Pharmacol Exp Ther. 271:1558, 1994) in a modified Tris-HCl buffer (50 mM Tris-HCl, pH 7.4, 12.5 mM MgCl2, 2 mM EDTA) was used. Compounds of the invention were incubated with 1 nM [^3H]MK-912 for 60 min. at 25° C. Non-specific binding was estimated in the presence of […] WB-4101. Receptor proteins were filtered and washed, the filters were then counted to determine [^3H]MK-912 specifically bound. Compounds were screened at 1 μM or lower, using 1% DMSO as vehicle. Compounds of the invention were tested in this biochemical assay and percent inhibition of specific binding was determined.

C57B1I6J mice = test: Catalepsy in the mouse bar test (EPS model); type: in vivo; settings: for effects on catalepsy, ANOVA: 0.03, 0.1, 0.3, 1, 3, 10, 30 oral, 30 min, 1 h, and 3 h, incl. haloperidol group
Text: Antipsychotic drugs are known to induce extrapyramidal syndrome (EPS) in animals and in humans. An animal model considered to be predictive of EPS is the mouse bar test, which measures cataleptic responses to pharmacological agents.
Male C57B1I6J mice from Jackson Laboratories (Bar Harbor, Me.) were used. Mice were received at 6-weeks of age. Upon receipt, mice were assigned unique identification numbers (tail marked) and were group housed with 4 mice/cage in OptiMICE ventilated cages. All animals remained housed in groups of four during the remainder of the study. All mice were acclimated to the colony room for at least two weeks prior to testing and were subsequently tested at an average age of 8 weeks. During the period of acclimation, mice were examined on a regular basis, handled, and weighed to assure adequate health and suitability. Animals were maintained on a 12 h/12 h light/dark cycle. The room temperature was maintained between 20 and 23° C. with a relative humidity maintained between 30% and 70%. Chow and water were provided ad libitum for the duration of the study. In each test, animals were randomly assigned across treatment groups.
The following compounds were used for this study. 1) Compound No. 83, 88 or 90 (0.03, 0.1, 0.3, 1, 3, 10, 30) was dissolved in 3% Tween in PBS and administered orally at a dose volume of 10 mL/kg; 2) Haloperidol (2 mg/kg) was dissolved in 10% DMSO and administered i.p. at a dose volume of 10 mL/kg.
The front paws of a mouse were placed on a horizontal metal bar raised 2″ above a Plexiglas platform and time was recorded for up to 30 seconds per trial. The test ended when the animal's front paws returned to the platform or after 30 seconds. The test was repeated three times and the average of the three trials was reported as the intensity index of catalepsy. Antipsychotic agents such as haloperidol cause rigidity as a side effect. Animals treated with haloperidol will hold on to the bar without moving for several minutes. Mice were brought to the activity experimental room for at least 1 h acclimation to the experimental room conditions prior to testing. Following injection of either vehicle, Compound No. 83, 88 or 90, or haloperidol, catalepsy was assessed at 3 time points: 30 min, 1 h, and 3 h. At the end of each trial, the apparatus was thoroughly cleaned with 70% ethanol.
Data were analyzed by analysis of variance (ANOVA) followed by post-hoc comparisons with Fisher Tests when appropriate. An effect was considered significant if p<0.05.

[3] = percent inhibition of specific binding, read-out: Inhibition of ligand binding, Adrenergic α2C

SMILES | inhibition at 1 µM [2, 3] [%] | Imidazoline I2 Central (1 μM), percent inhibition of specific binding [1] [%] | effects on catalepsy, ANOVA (C57B1I6J mice) | sedation observed in bar test (C57B1I6J mice; 30 mg/kg, oral) | also measured
Cc1ccc(C(O)Cn2c3c(c4cc(C)ccc42)CN(C)CC3)cc1 (racemic) [Compound 43, racemic-2-(1,2,3,4-tetrahydro-2,8-dimethylpyrido[4,3-b]indol-5-yl)-1-p-tolylethanol] | 100 |  |  |  | Imidazoline I2 Central (1 μM), percent inhibition of specific binding ([1]; 1 µM): 76% and 79%; Inhibition of ligand binding, Adrenergic α2C ([2]; percent inhibition of specific binding, 1 µM): 94%
Cc1ccc(C(O)Cn2c3c(c4ccccc42)CN(C)CC3)cc1 (racemic) [Compound 53, racemic-2-(1,2,3,4-tetrahydro-2-methylpyrido[4,3-b]indol-5-yl)-1-p-tolylethanol] | 82 | 78 |  |  | 
C/C(=C\n1c2c(c3cc(Cl)ccc31)CN(C)CC2)c1ccncc1 [Compound 90, (E)-8-chloro-2,3,4,5-tetrahydro-2-methyl-5-(2-(pyridin-4-yl)prop-1-enyl)-1H-pyrido[4,3-b]indole] |  |  | significant treatment effect | caused high levels of sedation | latency to hold the bar (C57B1I6J mice; 10 mg/kg, oral): increase; sedation observed in bar test (C57B1I6J mice; 10 mg/kg, oral): also caused sedation, but at lower levels
C/C(=C\n1c2c(c3cc(Cl)ccc31)CN(C)CC2)c1ccc(F)cc1 [Compound 83, (E)-8-chloro-5-(2-(4-fluorophenyl)prop-1-enyl)-2,3,4,5-tetrahydro-2-methyl-1H-pyrido[4,3-b]indole] | 99 | 85 | significant treatment effect | caused sedation | sedation observed in bar test (C57B1I6J mice; 10 mg/kg, oral): also caused sedation, but at lower levels
Cc1ccc2[nH]c3c(c2c1)CN(C)CC3 [Compound 3, 2,8-Dimethyl-2,3,4,5-tetrahydro-1H-pyrido[4,3-b]indole] |  | 58 |  |  | 
CCN1CCc2c(c3ccccc3n2CC(O)c2ccc(C)cc2)C1 (racemic) [Compound 44, racemic-2-(2-ethyl-1,2,3,4-tetrahydropyrido[4,3-b]indol-5-yl)-1-p-tolylethanol] | 35 | 46 |  |  | 
CCN1CCc2c(c3cc(C)ccc3n2CC(O)c2ccc(C)cc2)C1 (racemic) [Compound 51, racemic-2-(2-ethyl-1,2,3,4-tetrahydro-8-methylpyrido[4,3-b]indol-5-yl)-1-p-tolylethanol] | 92 | 79 |  |  | 
C/C(=C\n1c2c(c3cc(C)ccc31)CN(C)CC2)c1ccncc1 [Compound 88, (E)-2,3,4,5-tetrahydro-2,8-dimethyl-5-(2-(pyridin-4-yl)prop-1-enyl)-1H-pyrido[4,3-b]indole] |  |  | significant treatment effect | caused sedation | other effects in bar test (C57B1I6J mice; doses other than 30 mg/kg, oral): No other effects
Cc1ccc2c(c1)c1c(n2CC#Cc2ccccn2)CCN(C)C1 [Compound No. 500, 2,3,4,5-tetrahydro-2,8-dimethyl-5-(3-(pyridin-2-yl)prop-2-ynyl)-1H-pyrido[4,3-b]indole] |  | 54 |  |  | inhibition at 1 µM ([2]; 1 nM [3H]MK-912, read-out: Inhibition of ligand binding, Adrenergic α2C (percent inhibition of specific binding)): 43%
